Assays:
PTPN2 [1] = target: T1, PTPN2 (Homo sapiens (Human), UniProt P17706); experiment: PhosphoSens assay (PTPN2 BCHEM); type: biochemical; details: substrate AQT0264 20 μM, PTPN2 150 pM
Description: A PhosphoSens® kinase assay was performed as described by the vendor (AssayQuant Technologies, Marlborough, MA). Briefly, 1000× solutions of compounds were prepared in DMSO via serial dilution of the 10 mM DMSO stocks using 3-fold intervals in a 384-well reagent plate. 50 nL of the compound dilution series was then added to the corresponding wells of a 384-well assay plate. […] Finally, […] of 5× PTPN2 enzyme stock was added to each well of the assay plate for a final enzyme concentration of 150 pM. Reaction progress curves were collected by sampling fluorescence intensity at the excitation wavelength 360 nm (λex360) and emission wavelength 480 nm (λem480) every 71 seconds for one hour using a Synergy H4 plate reader (BioTek Instruments/Agilent Technologies, Winooski, VT) at room temperature.
Target sequence in this assay (P17706 whole entry): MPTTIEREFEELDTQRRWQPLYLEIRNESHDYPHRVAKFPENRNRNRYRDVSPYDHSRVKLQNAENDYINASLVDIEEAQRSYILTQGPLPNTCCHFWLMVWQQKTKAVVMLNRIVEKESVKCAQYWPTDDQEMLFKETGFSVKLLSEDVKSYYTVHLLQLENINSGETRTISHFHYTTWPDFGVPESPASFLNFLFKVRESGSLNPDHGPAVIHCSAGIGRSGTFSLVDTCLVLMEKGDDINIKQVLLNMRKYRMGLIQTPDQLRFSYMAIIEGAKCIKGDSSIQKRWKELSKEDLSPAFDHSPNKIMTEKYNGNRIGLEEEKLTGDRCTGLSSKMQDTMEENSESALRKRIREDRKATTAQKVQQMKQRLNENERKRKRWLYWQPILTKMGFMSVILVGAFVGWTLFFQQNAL

PTPN2 [2] = target: T1, PTPN2; experiment: Phosphatase activity assay using DiFMUP as substrate; type: biochemical; details: PTPN2 0.15 nM, 10 mM DTT
Description: The PTPN2 biochemical assay was performed as follows, a 5× stock solution of human PTPN2 (SRP5075, MilliporeSigma, Burlington, MA) and a 1.25× stock solution of DiFMUP (D6567, ThermoFisher Scientific, Waltham, MA), were prepared in 1× reaction buffer consisting of 50 mM HEPES, pH 7.4, 1 mM EDTA, 150 mM NaCl, 0.2 mg/mL BSA, 100 U/mL catalase and 10 mM DTT. […] of the DiFMUP substrate solution, for a final concentration of […] DiFMUP substrate, was added to a Corning 3574 384-well, white, non-binding surface microtiter plate containing […] of serially diluted test compounds prepared in DMSO. The reactions were started with the addition of […] of the enzyme solution, for a final PTPN2 concentration of 0.15 nM, and monitored every 105 seconds for 60 minutes at λEX 360/λEM 460 in a BioTek Synergy HTX plate reader (Agilent Technologies, Santa Clara, CA) at room temperature. The initial linear portions of the progress curves were fit according to a linear equation to yield the slopes and converted to % inhibition based on a value of 100% activity for the no inhibitor treated control. IC50 values of each compound were obtained by fitting the % inhibition-compound concentration curves using Dotmatics software (Dotmatics, Bishops Stortford, Hertfordshire, England),
Target sequence in this assay (P17706 other isoform, or with tags, fused parts or gaps isoform P17706-2): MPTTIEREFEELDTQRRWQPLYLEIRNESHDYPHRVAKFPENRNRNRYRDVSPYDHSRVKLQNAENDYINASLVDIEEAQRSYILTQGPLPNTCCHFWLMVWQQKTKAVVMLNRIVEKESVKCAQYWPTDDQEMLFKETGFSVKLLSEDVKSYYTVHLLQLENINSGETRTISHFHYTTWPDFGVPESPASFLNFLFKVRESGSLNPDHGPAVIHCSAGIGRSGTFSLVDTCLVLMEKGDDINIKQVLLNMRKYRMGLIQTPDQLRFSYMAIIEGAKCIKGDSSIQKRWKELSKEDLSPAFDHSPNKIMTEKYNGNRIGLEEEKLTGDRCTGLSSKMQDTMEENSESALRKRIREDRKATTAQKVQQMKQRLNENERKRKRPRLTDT

[3] = system: phosphorylated STAT1 in B16-F10 cells; experiment: Phospho-STAT1 (Tyr701) HTRF assay in B16-F10 cells with IFN-gamma; type: cell-based; details: mouse IFN-gamma 100 ng/mL, 1 hour, read-out: pSTAT1 HTRF B16F10 EC50
Description: B16-F10 cells (ATCC, Manassas, VA, #CRL-6475) were cultured in DMEM growth medium (ThermoFisher Scientific, Waltham, MA, #11995-040) supplemented with 10% heat-inactivated FBS (ThermoFisher Scientific, #16140-071) and 1% pen/strep (ThermoFisher Scientific, #15140-122). The cells were seeded into a white opaque 384-well tissue culture treated microplate (PerkinElmer, Waltham, MA, #6007688) at a density of 10,000 cells/well in 20 uL total volume and incubated overnight at 37 C and 5% CO2. 30 nL of compounds dissolved in DMSO were then transferred from a source plate into target wells with the Echo650 acoustic liquid handler (Beckman Coulter, Indianapolis, IN). Negative control wells received 30 nL of DMSO only (0.15% final concentration). Plates were returned to the incubator for 1 hour and then cells were treated with either 5 uL of growth medium or 5 uL of growth medium containing 500 ng/mL of recombinant mouse IFN-gamma protein (R&D Systems, Minneapolis, MN, #485-MI/CF, 100 ng/mL final concentration) using the Assist automated pipetting platform (INTEGRA Biosciences, Hudson, NH). Plates were incubated at 37 C for 1 hour and assayed for phosphorylated STAT1 protein levels with the phospho-STAT1 (Tyr701) HTRF kit (Cisbio, Bedford, MA, #63ADK026PEH) according to the manufacturer's instructions.

B16-F10 cells = experiment: Cell proliferation assay (CellTiter-Glo) in B16-F10 cells with IFN-gamma; type: cell-based; details: 120 h, mouse IFN-gamma 10 ng/mL, read-out: PTPN2 Prolif 5d B16F10 EC50

IC50 (PTPN2 [1]) | IC50 (PTPN2 [2]) | EC50 [3] | EC50 (B16-F10 cells) | Compound
100 nM | 80 nM | 5400 nM | 4560 nM | Cc1cnc(NCc2cc(O)c(N3CC(=O)NS3(=O)=O)c(F)c2)c(C)c1 [EXAMPLE 24, 5-[4-[[(3,5-dimethyl-2-pyridyl)amino]methyl]-2-fluoro-6-hydroxy-phenyl]-1,1-dioxo-1,2,5-thiadiazolidin-3-one]
40 nM | 100 nM | 1990 nM | 3130 nM | N#Cc1ccnc(NCc2cc(O)c(N3CC(=O)NS3(=O)=O)c(F)c2)c1 [EXAMPLE 11, 2-[[3-fluoro-5-hydroxy-4-(1,1,4-trioxo-1,2,5-thiadiazolidin-2-yl)phenyl]methylamino]pyridine-4-carbonitrile]
1 nM | 2 nM | 130 nM | 280 nM | Cc1cnc(NCc2cc(O)c(N3CC(=O)NS3(=O)=O)c(F)c2)cc1C [EXAMPLE 28, 5-[4-[[(4,5-dimethyl-2-pyridyl)amino]methyl]-2-fluoro-6-hydroxy-phenyl]-1,1-dioxo-1,2,5-thiadiazolidin-3-one]
 | 20 nM | 9450 nM | 6700 nM | COc1ccc(OC)c(NCc2cc(O)c(N3CC(=O)NS3(=O)=O)c(F)c2)n1 [EXAMPLE 21, 5-[4-[[(3,6-dimethoxy-2-pyridyl)amino]methyl]-2-fluoro-6-hydroxy-phenyl]-1,1-dioxo-1,2,5-thiadiazolidin-3-one]
10 nM | 10 nM | 750 nM | 610 nM | Cc1ccc(NCc2cc(O)c(N3CC(=O)NS3(=O)=O)c(F)c2)nc1 [EXAMPLE 14, 5-[2-fluoro-6-hydroxy-4-[[(5-methyl-2-pyridyl)amino]methyl]phenyl]-1,1-dioxo-1,2,5-thiadiazolidin-3-one]
 | 20 nM | 670 nM | 670 nM | COc1cc(NCc2cc(O)c(N3CC(=O)NS3(=O)=O)c(F)c2)nc(OC)c1 [EXAMPLE 18, 5-[4-[[(4,6-dimethoxy-2-pyridyl)amino]methyl]-2-fluoro-6-hydroxy-phenyl]-1,1-dioxo-1,2,5-thiadiazolidin-3-one]
 | 40 nM | 3110 nM | 4620 nM | Cc1cc(Br)nc(NCc2cc(O)c(N3CC(=O)NS3(=O)=O)c(F)c2)c1 [EXAMPLE 48, 5-(4-(((6-bromo-4-methylpyridin-2-yl)amino)methyl)-2-fluoro-6-hydroxyphenyl)-1,2,5-thiadiazolidin-3-one 1,1-dioxide]
1 nM | 1 nM | 30 nM | 50 nM | Cc1cc(C)nc(NCc2cc(O)c(N3CC(=O)NS3(=O)=O)c(F)c2)c1 [EXAMPLE 5, 5-[4-[[(4,6-dimethyl-2-pyridyl)amino]methyl]-2-fluoro-6-hydroxy-phenyl]-1,1-dioxo-1,2,5-thiadiazolidin-3-one]
 | 2 nM | 59 nM | 50 nM | COc1cc(C)nc(NCc2cc(O)c(N3CC(=O)NS3(=O)=O)c(F)c2)c1 [EXAMPLE 41, 5-[2-fluoro-6-hydroxy-4-[[(4-methoxy-6-methyl-2-pyridyl)amino]methyl]phenyl]-1,1-dioxo-1,2,5-thiadiazolidin-3-one]
5 nM | 3 nM | 180 nM | 170 nM | Cc1ccnc(NCc2cc(O)c(N3CC(=O)NS3(=O)=O)c(F)c2)c1 [EXAMPLE 7, 5-[2-fluoro-6-hydroxy-4-[[(4-methyl-2-pyridyl)amino]methyl]phenyl]-1,1-dioxo-1,2,5-thiadiazolidin-3-one]
2 nM | 5 nM | 310 nM | 190 nM | Cc1ccc(NCc2cc(O)c(N3CC(=O)NS3(=O)=O)c(F)c2)nc1C [EXAMPLE 19, 5-[4-[[(5,6-dimethyl-2-pyridyl)amino]methyl]-2-fluoro-6-hydroxy-phenyl]-1,1-dioxo-1,2,5-thiadiazolidin-3-one]
 | 5 nM | 7380 nM | 9020 nM | COc1ccc(C)c(NCc2cc(O)c(N3CC(=O)NS3(=O)=O)c(F)c2)n1 [EXAMPLE 29, 5-[2-fluoro-6-hydroxy-4-[[(6-methoxy-3-methyl-2-pyridyl)amino]methyl]phenyl]-1,1-dioxo-1,2,5-thiadiazolidin-3-one]
 | 140 nM | 1940 nM | 4710 nM | COc1cc(C)cc(NCc2cc(O)c(N3CC(=O)NS3(=O)=O)c(F)c2)n1 [EXAMPLE 39, 5-(2-fluoro-6-hydroxy-4-(((6-methoxy-4-methylpyridin-2-yl)amino)methyl)phenyl)-1,2,5-thiadiazolidin-3-one 1,1-dioxide]
 | 810 nM | > 15000 nM | 1710 nM | COc1ccnc(NCc2cc(O)c(N3CC(=O)NS3(=O)=O)c(F)c2)c1OC [EXAMPLE 27, 5-[4-[[(3,4-dimethoxy-2-pyridyl)amino]methyl]-2-fluoro-6-hydroxy-phenyl]-1,1-dioxo-1,2,5-thiadiazolidin-3-one]
 | 20 nM | 4820 nM | 14700 nM | Cc1cc(NCc2cc(O)c(N3CC(=O)NS3(=O)=O)c(F)c2)nc(N2CCOCC2)c1 [EXAMPLE 49, 5-(2-fluoro-6-hydroxy-4-(((4-methyl-6-morpholinopyridin-2-yl)amino)methyl)phenyl)-1,2,5-thiadiazolidin-3-one 1,1-dioxide]
 | 10 nM | 6290 nM | 3340 nM | Cc1cc(Oc2ccccc2)cc(NCc2cc(O)c(N3CC(=O)NS3(=O)=O)c(F)c2)n1 [EXAMPLE 52, 5-(2-fluoro-6-hydroxy-4-(((6-methyl-4-phenoxypyridin-2-yl)amino)methyl)phenyl)-1,2,5-thiadiazolidin-3-one 1,1-dioxide]
 | 40 nM | 4700 nM | 160 nM | O=C1CN(c2c(O)cc(CNc3cccc(C(F)F)n3)cc2F)S(=O)(=O)N1 [EXAMPLE 42, 5-[4-[[[6-(difluoromethyl)-2-pyridyl]amino]methyl]-2-fluoro-6-hydroxy-phenyl]-1,1-dioxo-1,2,5-thiadiazolidin-3-one]
 | 0.2 nM | 200 nM | 600 nM | O=C1CN(c2c(O)cc(CNc3cccc(=O)[nH]3)cc2F)S(=O)(=O)N1 [EXAMPLE 51, 5-(2-fluoro-6-hydroxy-4-(((6-oxo-1,6-dihydropyridin-2-yl)amino)methyl)phenyl)-1,2,5-thiadiazolidin-3-one 1,1-dioxide]
 | 110 nM | > 15000 nM | 6570 nM | O=C1CN(c2c(O)cc(CNc3cccc(OC(F)F)n3)cc2F)S(=O)(=O)N1 [EXAMPLE 43, 5-[4-[[[6-(difluoromethoxy)-2-pyridyl]amino]methyl]-2-fluoro-6-hydroxy-phenyl]-1,1-dioxo-1,2,5-thiadiazolidin-3-one]
 | 5 nM | 1750 nM | 2190 nM | N#Cc1cccc(NCc2cc(O)c(N3CC(=O)NS3(=O)=O)c(F)c2)n1 [EXAMPLE 40, 6-[[3-fluoro-5-hydroxy-4-(1,1,4-trioxo-1,2,5-thiadiazolidin-2-yl)phenyl]methylamino]pyridine-2-carbonitrile]
 | 10 nM | 4850 nM | 5750 nM | CN(C)c1cccc(NCc2cc(O)c(N3CC(=O)NS3(=O)=O)c(F)c2)n1 [EXAMPLE 44, 5-(4-(((6-(dimethylamino)pyridin-2-yl)amino)methyl)-2-fluoro-6-hydroxyphenyl)-1,2,5-thiadiazolidin-3-one 1,1-dioxide]

— US20240180886A1, “INHIBITORS OF PROTEIN TYROSINE PHOSPHATASE, COMPOSITIONS, AND METHODS OF USE” (BRISTOL-MYERS SQUIBB COMPANY, priority 2022, published 2024)
